Like-named read-outs stand apart in the source and are kept apart here. One block for each molecule: values may come before it.
Legend:
putrescine oxidase [1] = biological target: T1, putrescine oxidase (Kocuria rosea, UniProt P40974); settings: cited from earlier work
T1 sequence (P40974 1-478): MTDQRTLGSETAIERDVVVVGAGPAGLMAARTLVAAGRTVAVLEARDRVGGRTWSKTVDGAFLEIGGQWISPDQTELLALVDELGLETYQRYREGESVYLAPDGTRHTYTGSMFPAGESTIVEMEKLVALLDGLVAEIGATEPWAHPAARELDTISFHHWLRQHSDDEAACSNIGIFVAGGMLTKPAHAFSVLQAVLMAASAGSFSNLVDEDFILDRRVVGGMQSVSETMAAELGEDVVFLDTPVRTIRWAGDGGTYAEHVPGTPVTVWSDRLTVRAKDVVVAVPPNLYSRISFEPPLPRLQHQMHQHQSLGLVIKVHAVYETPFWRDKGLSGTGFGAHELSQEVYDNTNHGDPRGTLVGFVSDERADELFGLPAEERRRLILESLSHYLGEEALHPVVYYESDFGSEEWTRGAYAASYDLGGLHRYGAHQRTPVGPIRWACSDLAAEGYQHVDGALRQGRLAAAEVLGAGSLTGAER

polyamine oxidase PC-3 [2] = assay: Enzymatic oxidative decomposition by polyamine oxidase PC-3, colorimetric determination of hydrogen peroxide; format: biochemical; settings: for Activity of the enzyme on the substrate: N8-acetylspermidine only if the concentration of the enzyme is relatively high; for H2O2 formed: substrates marked * only with a relatively high concentration of the enzyme, -- = no activity; for hydrogen peroxide produced per mole of the substrate / time to completion of the reaction: pH 5.5, 35° C., about 0.05 unit of enzyme (about 15 units for N8-acetylspermidine)
[3] = test system: polyamine oxidase PC-3 followed by acetylputrescine oxidase; assay: Two-step reaction: polyamine oxidase PC-3, then acetylputrescine oxidase; format: biochemical
polyamine oxidase PC-3 [4] = settings: cited from earlier work
putrescine oxidase [5] = biological target: T1, putrescine oxidase; assay: Enzymatic oxidative decomposition by putrescine oxidase, colorimetric determination of hydrogen peroxide; format: biochemical; settings: for H2O2 formed: Table 1, -- = no activity; for hydrogen peroxide produced per mole of the substrate / time to completion of the reaction: borate buffer pH 8.5, 35° C., about 0.5 unit of enzyme
polyamine oxidase AT-1 [6] = assay: Enzymatic oxidative decomposition by polyamine oxidase AT-1, colorimetric determination of hydrogen peroxide; format: biochemical; settings: for putrescine formed / H2O2 formed: Table 1, substrates marked * only with a relatively high concentration of the enzyme; for H2O2 formed: -- = no activity; for hydrogen peroxide produced per mole of the substrate / time to completion of the reaction: pH 6.5, 35° C., 0.05 unit of enzyme (2 units for acetylspermine); for Activity of the enzyme on the substrate: spermine and spermidine at low enzyme concentration, acetylspermine and N1-acetylspermidine when the concentration of the enzyme is increased
[7] = test system: polyamine oxidase AT-1 followed by putrescine oxidase; assay: Two-step reaction: polyamine oxidase AT-1, then putrescine oxidase; format: biochemical; settings: for absorbance after the first step / increment of absorbance in the second step / absorbance after the second step: 505 nm; for absorbance after the first step: AT-1 0.05 unit (about 5 units for acetylspermine and N1-acetylspermidine), 0.5 ml of 400 μM substrate in 2.5 ml; for increment of absorbance in the second step: after addition of putrescine oxidase; for absorbance after the second step: putrescine oxidase 0.5 unit, pH 8-9, 5 minutes; for hydrogen peroxide produced per mole of the substrate in the first step: polyamine oxidase AT-1; for hydrogen peroxide produced in the second step: putrescine oxidase acting on the putrescine produced in the first step
[8] = test system: polyamine oxidase PC-3 followed by putrescine oxidase; assay: Two-step reaction: polyamine oxidase PC-3, then putrescine oxidase; format: biochemical; settings: for absorbance after the first step / increment of absorbance in the second step / absorbance after the second step: 505 nm; for absorbance after the first step: PC-3 about 0.05 unit, acetate buffer pH 5.0; for increment of absorbance in the second step: after addition of putrescine oxidase; for absorbance after the second step: putrescine oxidase about 0.5 unit, pH 8-8.5, 5 minutes; for hydrogen peroxide produced per mole of the substrate in the first step: polyamine oxidase PC-3; for hydrogen peroxide produced per mole of the substrate in the second step: putrescine oxidase
polyamine oxidase AT-1 [9] = settings: cited from earlier work

Molecule: NCCCN [1,3-diaminopropane]
- Substrate specificity (putrescine oxidase [1]): inactive

- Activity of the enzyme on the substrate (polyamine oxidase PC-3 [2]): active
- acetylputrescine formed (polyamine oxidase PC-3 [2]; Table 1, relatively high concentration of the enzyme): 1 moles per mole of the substrat
- H2O2 formed (polyamine oxidase PC-3 [2]; Table 1): 1 moles per mole of the substrat
- hydrogen peroxide produced per mole of the substrate (polyamine oxidase PC-3 [2]): 1 mol
- time to completion of the reaction (polyamine oxidase PC-3 [2]): ≤ 10 min
- absorbance after the first step ([3]; 505 nm, PC-3 about 15 units, pH 5.5, 0.5 ml of 400 μM substrate in 2.5 ml): 0.500
- absorbance after the second step ([3]; 505 nm, acetylputrescine oxidase about 0.5 unit, pH about 7.5, about 10 minutes): 1.000
- increment of absorbance in the second step ([3]; 505 nm, after addition of acetylputrescine oxidase): 0.500
- hydrogen peroxide produced per mole of the substrate in the second step ([3]; acetylputrescine oxidase): 1 mol
- hydrogen peroxide produced per mole of the substrate in the first step ([3]; polyamine oxidase PC-3): 1 mol
Molecule: CC(=O)NCCCCNCCCN [N^8 -acetylspermidine]

Molecule: O=C(O)c1cc[c]([Hg][Cl])cc1 [PCMB]
- Inhibitors (polyamine oxidase PC-3 [4]; spermine as the substrate): inhibition

Molecule: O=C(O)CI [monoiodoacetic acid]
- Inhibitors (polyamine oxidase PC-3 [4]): inhibition

Molecule: NCCCCN [putrescine]
- H2O2 formed (putrescine oxidase [5]): 1 moles per mole of the substrat
- hydrogen peroxide produced per mole of the substrate (putrescine oxidase [5]): 1 mol
- time to completion of the reaction (putrescine oxidase [5]): ≤ 5 min
- Enzymatic activity: products per mole of the substrate (putrescine oxidase [1]): each 1 mole of 4-aminobutanal, hydrogen peroxide and ammonia
- Substrate specificity (putrescine oxidase [1]): active

- putrescine formed (polyamine oxidase AT-1 [6]): 1 moles per mole of the substrat
- H2O2 formed (polyamine oxidase AT-1 [6]): 1 moles per mole of the substrat
- hydrogen peroxide produced per mole of the substrate (polyamine oxidase AT-1 [6]): 1 mol
- time to completion of the reaction (polyamine oxidase AT-1 [6]): ≤ 5 min
- Activity of the enzyme on the substrate (polyamine oxidase AT-1 [6]): active
- Activity of the enzyme on the substrate (polyamine oxidase PC-3 [2]): active
- putrescine formed (polyamine oxidase PC-3 [2]; Table 1): 1 moles per mole of the substrat
- H2O2 formed (polyamine oxidase PC-3 [2]; Table 1): 1 moles per mole of the substrat
- hydrogen peroxide produced per mole of the substrate (polyamine oxidase PC-3 [2]): 1 mol
- time to completion of the reaction (polyamine oxidase PC-3 [2]): ≤ 10 min
- H2O2 formed (putrescine oxidase [5]): 1 moles per mole of the substrat
- hydrogen peroxide produced per mole of the substrate (putrescine oxidase [5]): 1 mol
- time to completion of the reaction (putrescine oxidase [5]): ≤ 10 min
- absorbance after the first step [7]: 0.50
- increment of absorbance in the second step [7]: 0.50
- absorbance after the second step [7]: 1.00
- hydrogen peroxide produced per mole of the substrate in the first step [7]: 1 mol
- hydrogen peroxide produced in the second step [7]: 1 mol
- absorbance after the first step [8]: 0.50
- increment of absorbance in the second step [8]: 0.50
- absorbance after the second step [8]: 1.00
- hydrogen peroxide produced per mole of the substrate in the first step [8]: 1 mol
- hydrogen peroxide produced per mole of the substrate in the second step [8]: 1 mol
Molecule: NCCCCNCCCN [spermidine]
- Substrate specificity (polyamine oxidase AT-1 [9]; oxidation with formation of hydrogen peroxide): active
- Enzymatic activity: products per mole of the substrate (polyamine oxidase AT-1 [9]; polyamine oxidase AT-1): each 1 mole of putrescine, 3-aminopropanal and hydrogen peroxide
- Enzymatic activity: products per mole of the substrate (polyamine oxidase PC-3 [4]; polyamine oxidase PC-3): each 1 mole of putrescine, 3-aminopropanaland hydrogen peroxide
- Substrate specificity (polyamine oxidase PC-3 [4]; polyamine oxidase PC-3): active
- Enzymatic activity: products per mole of the substrate (putrescine oxidase [1]): each 1 mole of 1,3-diaminopropane, 4-aminobutanal and hydrogen peroxide
- Substrate specificity (putrescine oxidase [1]): active

Molecule: NCCCNCCCCNCCCN [spermine]
- absorbance at completion of the reaction (polyamine oxidase AT-1 [6]; 505 nm, 0.5 ml of 400 μM substrate in 2.5 ml, pH 6.5, 35° C., 0.05 unit of enzyme): 1.00
- putrescine formed (polyamine oxidase AT-1 [6]): 1 moles per mole of the substrat
- H2O2 formed (polyamine oxidase AT-1 [6]): 2 moles per mole of the substrat
- hydrogen peroxide produced per mole of the substrate (polyamine oxidase AT-1 [6]): 2 mol
- time to completion of the reaction (polyamine oxidase AT-1 [6]): ≤ 5 min
- Activity of the enzyme on the substrate (polyamine oxidase AT-1 [6]): active
- Activity of the enzyme on the substrate (polyamine oxidase PC-3 [2]): active
- putrescine formed (polyamine oxidase PC-3 [2]; Table 1): 1 moles per mole of the substrat
- H2O2 formed (polyamine oxidase PC-3 [2]; Table 1): 2 moles per mole of the substrat
- hydrogen peroxide produced per mole of the substrate (polyamine oxidase PC-3 [2]): 2 mol
- time to completion of the reaction (polyamine oxidase PC-3 [2]): ≤ 5 min
- absorbance after the first step [7]: 1.00
- increment of absorbance in the second step [7]: 0.50
- absorbance after the second step [7]: 1.50
- hydrogen peroxide produced per mole of the substrate in the first step [7]: 2 mol
- hydrogen peroxide produced in the second step [7]: 1 mol
- absorbance after the first step [8]: 1.00
- increment of absorbance in the second step [8]: 0.50
- absorbance after the second step [8]: 1.50
- hydrogen peroxide produced per mole of the substrate in the first step [8]: 2 mol
- hydrogen peroxide produced per mole of the substrate in the second step [8]: 1 mol
- Enzymatic activity: products per mole of the substrate (polyamine oxidase AT-1 [9]): 1 mole of putrescine and each 2 moles of 3-aminopropanal and hydrogen peroxide
- Substrate specificity (polyamine oxidase AT-1 [9]): active
- Enzymatic activity: products per mole of the substrate (polyamine oxidase PC-3 [4]): 1 mole of putrescine and each 2 moles of 3-aminopropanal and hydrogen peroxide
- Substrate specificity (polyamine oxidase PC-3 [4]): active
- Substrate specificity (putrescine oxidase [1]): inactive

Molecule: silver
- Inhibitors (polyamine oxidase AT-1 [9]; polyamine oxidase AT-1): strong inhibition
- Inhibitors (polyamine oxidase PC-3 [4]; spermidine as the substrate): inhibition
- Inhibitors (polyamine oxidase PC-3 [4]; spermine as the substrate): inhibition
